{"source": "patent US20040023984A1", "about": "“Compounds for the treatment of alzheimer's disease” (priority 1987, published 2004)", "key": {"[1]": {"target": "T1, acetylcholinesterase (Homo sapiens, UniProt P22303)", "T1 sequence (P22303 32-614, species assumed)": "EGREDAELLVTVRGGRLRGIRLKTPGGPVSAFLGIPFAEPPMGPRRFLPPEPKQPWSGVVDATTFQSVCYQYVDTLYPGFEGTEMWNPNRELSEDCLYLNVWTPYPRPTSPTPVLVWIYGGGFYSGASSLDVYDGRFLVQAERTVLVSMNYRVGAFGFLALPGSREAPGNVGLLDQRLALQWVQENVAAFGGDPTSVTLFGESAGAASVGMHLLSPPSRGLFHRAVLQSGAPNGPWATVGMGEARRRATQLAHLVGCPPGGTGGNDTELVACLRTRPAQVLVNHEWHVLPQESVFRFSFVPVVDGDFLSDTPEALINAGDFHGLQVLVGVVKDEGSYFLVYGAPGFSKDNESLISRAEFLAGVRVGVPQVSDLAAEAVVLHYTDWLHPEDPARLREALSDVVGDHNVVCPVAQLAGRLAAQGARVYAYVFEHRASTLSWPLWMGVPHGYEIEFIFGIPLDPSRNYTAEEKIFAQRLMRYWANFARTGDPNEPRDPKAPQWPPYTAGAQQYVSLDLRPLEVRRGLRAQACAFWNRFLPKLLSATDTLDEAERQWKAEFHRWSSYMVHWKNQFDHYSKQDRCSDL", "assay": "Inhibition of acetylcholinesterase, procedure of Ellman (acetylthiocholine substrate, photometric)", "type": "biochemical", "method": "The anticholinesterase activity of the compounds prepared in the above examples was assayed by an assay for inhibition of acetylcholinesterase following the procedure of G. Ellman, […], 7:88-95 (1961) Acetylthiocholine serves as substrate since it acts like acetylcholine. Acetylcholinesterase cleaves it to thiocholine and acetate which react with dithiobisnitrobenzoate to form a yellow color which is measured photometrically.\nThis assay was carried out at dilution of 10^−5 molar\nThe compounds were tested in the assay described after Example 5 but at different concentrations. The results obtained were as follows:\nFurther compounds were prepared by methods analogous to those described above and were tested in a cholinesterase assay as described above."}, "[2]": {"test_system": "scopolamine induced memory deficit", "assay": "Scopolamine dementia dark avoidance test (passive avoidance)", "type": "in vivo, male CFW mice", "details": "for # > CO/n / % > CO / Mean Latency: Table 2, cut-off 41 seconds", "method": "Furnished data on the effects of these compound on cholinesterase activity were used to determine doses for testing. […] The two other compounds were tested at 1,3 and 10 mg/kg sc and did antagonize the scopolamine induced deficit.\nTraining and testing of passive avoidance were conducted in a two-compartment (light/dark) test cage. On the training day, mice were individually placed in the light half of the cage and after entering the dark compartment, were administered a 3 sec 0.4 mA footshock. They were then removed from the test chamber and returned to their home cages. Twenty-four hours later, the animals were again placed in the lighted half of the test cage and the latency to enter the dark compartment was measured.\nAll animals in each group of 15 naive male CFW mice were injected twice subcutaneously. Thirty minutes prior to training, animals were administered 3 mg/kg scopolamine HBr or its 0.9% NaCl vehicle. Five minutes prior to training, independent groups were administered one of three doses of the test compounds or the distilled water vehicle. One group in each experiment received vehicle twice, another group received scopolamine and the dH2O vehicle; the remaining groups received scopolamine and a test compound.\nA cutoff value (CO), defined as the second-longest latency in the scopolamine/vehicle treated group, was used to determine whether a compound was active. If 20% or more of the animals in a treatment group had latencies greater than the CO value, the compound was considered active at that dose.\nThe three compounds were tested in two separate experiments; the results are presented below in Tables 1 and 2. Doses considered active are marked with an asterisk (*)."}, "[3]": {"test_system": "EEG—recorded activity", "details": "relative to galanthamine; cited from earlier work"}, "[4]": {"test_system": "cholinesterase", "details": "relative to galanthamine; cited from earlier work"}, "[5]": {"details": "3 mg/kg; cited from earlier work"}, "[6]": {"test_system": "respiration and heart activity", "details": "relative to galanthamine; cited from earlier work"}, "[7]": {"target": "T1, acetylcholinesterase", "assay": "Acetylcholinesterase Inhibition Assay (other cholinesterase activity tests, may be less reliable)", "type": "biochemical", "details": "results may be less reliable"}, "[8]": {"test_system": "nucleas basalis-lesioned animals", "assay": "Nucleus basalis model, passive avoidance in shuttle box", "type": "in vivo, mice", "source_text": "The following test provides a good animal model for Alzheimer's disease in humans: A selective lesion is placed in a subcortical nucleus (nucleus basalis of Meynert) with a resultant cortical cholinergic deficiency, similar in magnitude to that seen in early to moderate stage Alzheimer's disease. Numerous behavioral deficits, including the inability to learn and retain new information, characterizes this lesion. Drugs that can normalize these abnormalities would have a reasonable expectation of efficacy in Alzheimer's disease. Haroutunian, V, Kanof P, Davis, K L: Pharmacological alleviations of cholinergic-lesion-induced memory defects in rats. Life Sciences, 37:945-952 (1985).\n(§1) Galanthamine n-butyl carbamate was tested in the nucleus basalis model for galanthamine discussed in the Hartounian et al paper noted above. In the test, mice were given the drug three and ½ hours before two learning trials in a shuttle box. They are placed in the lighted compartment and receive an electric footshock when they cross into the preferred side, the dark. The next day, they are again placed in the lighted compartment and the time to enter the dark is noted. The latency to enter the dark compartment is the basis for this figure. […] Below 50 mg/kg no side effects were noted."}, "[9]": {"test_system": "normal mice", "assay": "Passive avoidance shuttle box test using normal mice", "type": "in vivo", "method": "as §1\nIn a similar test using normal mice, the mice remained in the light (less preferred) side of the shuttle box for over six minutes at the best dose (0.1 mg/kg) as compared to a best dose result of about 90 seconds for the nucleas basalis-lesioned animals."}, "[10]": {"test_system": "mice", "assay": "Cholinergic side effects in mice at high doses", "type": "in vivo", "method": "as §1"}}}
{"smiles": "COc1ccc2c3c1OC1CC(O)CC[C@@]31CCN(C)C2", "note": "(stereo partly drawn) [lycoramine]", "values": [{"measurement": "inhibition at 10 µM", "setting": "[1]; 10^−5 M, further compounds, read-out: cholinesterase inhibition at 10^−5 M", "value": 30, "unit": "%"}, {"measurement": "antagonism of scopolamine induced memory deficit", "setting": "[2]; 10 mg/kg sc", "value": "active"}, {"measurement": "# > CO/n", "setting": "[2]; scopolamine + 1 mg/kg sc", "value": "1/15"}, {"measurement": "% > CO", "setting": "[2]; scopolamine + 1 mg/kg sc", "value": 7, "unit": "%"}, {"measurement": "Mean Latency", "setting": "[2]; scopolamine + 1 mg/kg sc", "value": 26, "unit": "s"}, {"measurement": "# > CO/n", "setting": "[2]; scopolamine + 3 mg/kg sc", "value": "0/15"}, {"measurement": "Mean Latency", "setting": "[2]; scopolamine + 3 mg/kg sc", "value": 19, "unit": "s"}, {"measurement": "% > CO", "setting": "[2]; scopolamine + 3 mg/kg sc, * = dose considered active", "value": 0, "unit": "%"}, {"measurement": "# > CO/n", "setting": "[2]; scopolamine + 10 mg/kg sc", "value": "4/15"}, {"measurement": "Mean Latency", "setting": "[2]; scopolamine + 10 mg/kg sc", "value": 48, "unit": "s"}, {"measurement": "% > CO", "setting": "[2]; scopolamine + 10 mg/kg sc, * = dose considered active", "value": "27* %"}, {"measurement": "concentration required to stimulate EEG-recorded activity, times that required for galanthamine", "setting": "[3]", "value": "about five"}]}
{"smiles": "COc1ccc2c3c1OC1CC(=O)C=C[C@@]31CCN(C)C2", "note": "(stereo partly drawn) [Narwedine, narwedine]", "values": [{"measurement": "anti-cholinesterase activity as % of that of galanthamine", "setting": "[4]", "value": "less than 1%"}, {"measurement": "anticurare activity", "setting": "[5]", "value": "weak"}, {"measurement": "cholinergic effects on respiration and heart activity, lower than galanthamine", "setting": "[6]", "value": "50-80%"}]}
{"smiles": "CCCCNC(=O)O[C@@H]1C=CC23CCN(C)Cc4ccc(OC)c(c42)O[C@@H]3C1", "note": "(stereo partly drawn) [galanthamine n-butyl carbamate]", "values": [{"measurement": "inhibition of acetylcholinesterase at concentration 10^−5", "setting": "[1]; 10^−5 molar", "value": 75}, {"measurement": "% Inhibition at 10^−6", "setting": "[7]; 10^−6", "value": 37, "unit": "%"}, {"measurement": "% Inhibition at 10^−7", "setting": "[7]; 10^−7", "value": 9, "unit": "%"}, {"measurement": "% Inhibition at −10^−5", "setting": "[7]; −10^−5", "value": 44, "unit": "%"}, {"measurement": "best dose result, latency to enter the dark compartment", "setting": "[8]; nucleas basalis-lesioned animals, best dose", "value": "about 90 seconds"}, {"measurement": "passive avoidance result compared with galanthamine", "setting": "[8]; nucleus basalis model, mice", "value": "comparable with those obtained with galanthamine"}, {"measurement": "best dose in passive avoidance test", "setting": "[8]; nucleus basalis model, mice, drug given three and ½ hours before learning trials", "value": 0.5, "unit": "mg/kg"}, {"measurement": "best dose in passive avoidance test", "setting": "[9]", "value": 0.1, "unit": "mg/kg"}, {"measurement": "time mice remained in the light side of the shuttle box", "setting": "[9]; best dose (0.1 mg/kg)", "value": "over six"}, {"measurement": "dose below which no side effects were noted", "setting": "[10]; mice", "value": "Below 50 mg/kg"}, {"measurement": "side effects and lethality", "setting": "[10]; two mice given 100 mg/kg", "value": "showed cholinergic side effects but neither died"}]}
{"smiles": "COc1ccc2c3c1O[C@H]1C[C@H](O)C=C[C@@]31CCN(C)C2", "note": "[epigalanthamine]", "values": [{"measurement": "anti-cholinesterase activity as % of that of galanthamine", "setting": "[4]", "value": 10, "unit": "%"}]}
